From PMC6828666, “Discovery of holoenzyme-disrupting chemicals as substrate-selective CK2 inhibitors” (Scientific Reports, 2019)

Key:
[1] = target: T1, CHK2 (Homo sapiens, UniProt O96017); assay: Kinase selectivity profiling (Millipore Kinase profiler); type: biochemical; details: 100 μM compound; 10 μM ATP
T1 construct: purchased Millipore (Upstate Kinase Profiler Panel Service)
Experimental: (§1) Kinase selectivity of compound 1 was assessed using a panel of 45 recombinant protein kinases. The assays were performed at 10 μM ATP in the presence of 100 μM inhibitor using the Kinase profiler panel service (Millipore). Inhibition, expressed as the percent of activity determined in the absence of inhibitor, was calculated from the residual activity measured in the presence of 100 μM inhibitor.
(§2) Fig. S4. Kinase selectivity profile of compound 1 on a panel of 45 different protein kinases. The assays were performed at 10 μM ATP in the presence of 100 μM compound 1 using the Upstate Kinase Profiler Panel Service (Millipore). Residual activity in presence of 100 μM compound 1 are depicted in (a) and a graphical representation of the inhibition percentage in the presence of 100 μM compound 1 is shown in (b).

[2] = target: T2, CK2α (Homo sapiens, UniProt P68400); assay: as above; type: biochemical; details: 100 μM compound; 10 μM ATP
T2 sequence (P68400 whole entry): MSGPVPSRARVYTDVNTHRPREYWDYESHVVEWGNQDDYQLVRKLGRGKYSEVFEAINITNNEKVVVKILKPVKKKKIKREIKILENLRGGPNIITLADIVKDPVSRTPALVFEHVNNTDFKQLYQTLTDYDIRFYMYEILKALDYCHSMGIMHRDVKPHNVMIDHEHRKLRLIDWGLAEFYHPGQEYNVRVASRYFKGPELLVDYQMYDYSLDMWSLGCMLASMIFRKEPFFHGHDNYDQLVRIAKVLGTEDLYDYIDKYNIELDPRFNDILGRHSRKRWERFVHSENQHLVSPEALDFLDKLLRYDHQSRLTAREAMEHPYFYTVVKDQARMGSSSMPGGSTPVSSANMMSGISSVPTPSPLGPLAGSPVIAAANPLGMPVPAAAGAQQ
Experimental: as §1, §2

[3] = target: T3, CK2α2β2 (Homo sapiens, UniProt P68400); assay: as above; type: biochemical; details: 100 μM compound; 10 μM ATP
T3 construct: purchased Millipore (Upstate Kinase Profiler Panel Service)
T3 sequence (P68400 whole entry): as above
Experimental: as §1, §2

[4] = target: T4, Pim-1 (Homo sapiens, UniProt P11309); assay: as above; type: biochemical; details: 100 μM compound; 10 μM ATP
T4 construct: purchased Millipore (Upstate Kinase Profiler Panel Service)
T4 sequence (P11309 whole entry): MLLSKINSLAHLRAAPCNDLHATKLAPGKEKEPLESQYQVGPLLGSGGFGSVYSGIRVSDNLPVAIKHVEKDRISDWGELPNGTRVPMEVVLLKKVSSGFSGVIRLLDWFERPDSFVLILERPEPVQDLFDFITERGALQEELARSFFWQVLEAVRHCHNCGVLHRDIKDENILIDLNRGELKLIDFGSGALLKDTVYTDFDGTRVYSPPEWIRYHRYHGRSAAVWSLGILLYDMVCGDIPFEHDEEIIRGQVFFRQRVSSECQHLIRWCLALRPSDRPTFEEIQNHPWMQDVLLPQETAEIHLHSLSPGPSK
Experimental: as §1, §2

[5] = system: panel of 45 recombinant protein kinases; assay: Kinase selectivity profiling, whole panel; type: biochemical, human; details: focused selectivity panel of 45 kinases, 100 μM
Experimental: as §1, §2

[6] = target: T2, CK2α; assay: Steady state kinetic analysis of CK2 inhibition (Lineweaver-Burk); type: biochemical; parameters: made in house; host or cells: Escherichia coli (CK2α); details: for Ki: increasing ATP
Experimental: Steady state kinetic analysis of compound 1 complexation with CK2 was performed by incubation of CK2α with increasing concentrations of CK2β in the presence of different concentrations of the compound. ATP and eIF2-derived peptide were present at their saturating concentrations, 100 μM and 600 μM, respectively (Fig. 3e).
In the presence of 100 μM of compound 1, adding increasing concentrations of CK2β-dependent peptide at a saturating concentration of ATP (100 μM) had no effect on the extent of inhibition (Fig. 2d) showing that the inhibition is also not competitive with the peptide substrate. Using steady-state kinetic analysis, we examined the effects of increasing ATP concentrations on the inhibition of phosphorylation by compound 1. In the presence of a saturating concentration of the CK2β-dependent peptide substrate (133 μM), increasing ATP concentrations reduced the level of inhibition but could not restore either the maximal velocity of the enzyme, Vmax, or the Michaelis constant, km, for ATP.
For Olig2 phosphorylation assay, GST-Olig2 fusion protein (3.7 μg) was incubated with 200 nM CK2α, in the absence or presence of 50 μM compound 1 and increasing concentrations of CK2β. Samples were analyzed by SDS PAGE and subjected to autoradiography. Phosphoproteins were quantified by densitometry scanning. For eIF2 peptide phosphorylation assay, the CK2β-dependent peptide substrate (600 μM) was incubated with CK2α (40–50 nM) and increasing concentrations of compound 1 or/and CK2β.
Fig. S2. Ki and Ki’ value determination from enzymatic kinetic characterization of CK2 inhibition by compound 1. (a) Ki value has been calculated from linear regression analysis of the slopes (α/Vmax) of the Lineweaver-Burk double reciprocal plots of Fig 2f. (b) Ki’ value has been calculated from linear regression analysis of the y-intercept (α’/Vmax) of Lineweaver-Burk double reciprocal plots of Fig 2f.

T1 sequence (O96017 whole entry): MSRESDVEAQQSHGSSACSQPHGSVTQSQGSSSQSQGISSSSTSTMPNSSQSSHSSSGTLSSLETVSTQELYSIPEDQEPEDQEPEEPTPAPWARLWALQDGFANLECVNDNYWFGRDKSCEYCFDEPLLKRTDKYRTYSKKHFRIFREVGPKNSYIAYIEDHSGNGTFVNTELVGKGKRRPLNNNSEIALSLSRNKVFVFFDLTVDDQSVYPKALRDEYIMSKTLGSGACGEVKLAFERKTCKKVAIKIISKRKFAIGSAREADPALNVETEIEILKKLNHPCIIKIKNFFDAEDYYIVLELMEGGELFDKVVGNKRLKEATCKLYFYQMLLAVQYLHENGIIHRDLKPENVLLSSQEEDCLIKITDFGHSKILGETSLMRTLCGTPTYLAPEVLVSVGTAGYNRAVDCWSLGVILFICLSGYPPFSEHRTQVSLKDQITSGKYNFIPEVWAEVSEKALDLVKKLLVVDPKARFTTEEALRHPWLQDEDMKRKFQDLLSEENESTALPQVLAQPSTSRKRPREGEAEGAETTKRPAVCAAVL

COc1[nH]c2ccc(F)cc2c1C(=O)OCC1CCN(CCNS(C)(=O)=O)CC1 [Compound 1]
inhibition at 100 µM [1]: 24%
inhibition at 100 µM [2]: 27%
inhibition at 100 µM [3]: 85%
inhibition at 100 µM [4]: 36%
Gini coefficient [5]: 0.81
Ki ([6]; for CK2α, Lineweaver-Burk slopes): 12 µM
Ki ([6]; for the CK2α-ATP complex, Lineweaver-Burk y-intercepts): 62 µM
Ki' (mixed competitive inhibition towards CK2β) ([6]; for the CK2α-ATP complex, increasing CK2β, ATP 100 μM, eIF2-derived peptide 600 μM): ~65 µM
